Test results published in patent EP4653448A1, “COMPOUND FOR RNA CAPPING AND USE THEREOF” (Guangzhou Henovcom Bioscience Co. Ltd., priority 2023, dated 2024).

Key:
T7 RNA Polymerase = T7 RNA Polymerase (Escherichia phage T7, UniProt P00573); assay: Detection of the efficiency of mRNA capping synthesis (in vitro transcription, product yield); format: biochemical; conditions: 20 µL mRNA synthesis reaction system
Protocol: • 1) The plasmids were linearized and the DNA templates were purified. • 2) The mRNA was synthesized by in vitro transcription, using the capping structure prepared in the present disclosure, positive control CleanCap®AG (3'OMe) (Trilink, N-7413), negative control (uncapped mRNA) and blank control (DNase/RNase-Free water), respectively. Reaction system
The reaction was carried out at 37°C for 2 to 3 h. TURBO DNase digestion was carried out for 15 min. The mRNA was precipitated by LiCl for 30 min or more or overnight, and the mRNA precipitate was washed with 75% ethanol, dried briefly to evaporate the ethanol, and the mRNA was redissolved with RNase-Free water.
In the reaction system listed in Table 1, since the solubility of different test compounds varies in different solutions, adjustments can be made as needed. For ease of operation, the commonly used concentrations are 10 mM and 100 mM. […] If the initial concentration of the test compound is 10 mM, the dosage is 8 µL. Regardless of the initial concentration, the dosages of different test compounds were the same, and the final concentrations were also the same.
For example, when testing compounds S17 and S19, their initial concentration was 10 mM, and the addition volume was 8 µL. When testing compounds 5 and 6, their initial concentration was 100 mM, and the addition volume was 0.8 µL.
The assay was performed according to the method described in Example 20.

HEK293T cells = assay: Expression efficiency of capped luciferase mRNAs in HEK293T cells; format: cell-based; conditions: 6 h after transfection of capped luciferase mRNA
Protocol: • 1) HNE293T cells were cultured in DMEM medium containing 10% FBS and penicillin/streptomycin at 37°C and 5% CO2. • 2) The cultured HEK293T cells were spread in a 96-well plate with 1.25 × 10^4 cells per well. • 3) After the cells completely adhered to the wall, 0.5 µg of a mixture of mRNA sample and Polyplus jet[…] was added to each well of cells, and cultured at 37°C and 5% CO2 for 6 h. • 4) The growth medium was removed from the cells to be tested and the cells were rinsed with PBS. After centrifugation to remove PBS, 50 µL of 1x lysis buffer was added thereto, and cells and all liquid were transferred to a microcentrifuge tube, and then centrifuged at 12000 x g at 4°C for 2 min. • 5) The supernatant was transferred to a new tube. Fluorescence readings were detected using the ONE-Glo Luciferase Assay System Kit.
All test compounds, N-7413, negative control and blank control were tested under the same conditions, and some experimental results in the test results are shown in Table 3. Table 3. Relative fluorescence readings for capped mRNAs
The assay was performed according to the method described in Example 21. All test compounds, N-7413, negative control and blank control were tested under the same conditions, and some experimental results in the test results are shown in Table 5. Table 5 Relative fluorescence readings for capped mRNAs

[1] = reading of N-7413 = 1 (Table 5)
[2] = test compound 4 mM, 37°C 2 to 3 h (Table 2)
[3] = 0.5 µg per well, reading of N-7413 = 1 (Table 3)

Sequence of T7 RNA Polymerase (P00573 whole entry): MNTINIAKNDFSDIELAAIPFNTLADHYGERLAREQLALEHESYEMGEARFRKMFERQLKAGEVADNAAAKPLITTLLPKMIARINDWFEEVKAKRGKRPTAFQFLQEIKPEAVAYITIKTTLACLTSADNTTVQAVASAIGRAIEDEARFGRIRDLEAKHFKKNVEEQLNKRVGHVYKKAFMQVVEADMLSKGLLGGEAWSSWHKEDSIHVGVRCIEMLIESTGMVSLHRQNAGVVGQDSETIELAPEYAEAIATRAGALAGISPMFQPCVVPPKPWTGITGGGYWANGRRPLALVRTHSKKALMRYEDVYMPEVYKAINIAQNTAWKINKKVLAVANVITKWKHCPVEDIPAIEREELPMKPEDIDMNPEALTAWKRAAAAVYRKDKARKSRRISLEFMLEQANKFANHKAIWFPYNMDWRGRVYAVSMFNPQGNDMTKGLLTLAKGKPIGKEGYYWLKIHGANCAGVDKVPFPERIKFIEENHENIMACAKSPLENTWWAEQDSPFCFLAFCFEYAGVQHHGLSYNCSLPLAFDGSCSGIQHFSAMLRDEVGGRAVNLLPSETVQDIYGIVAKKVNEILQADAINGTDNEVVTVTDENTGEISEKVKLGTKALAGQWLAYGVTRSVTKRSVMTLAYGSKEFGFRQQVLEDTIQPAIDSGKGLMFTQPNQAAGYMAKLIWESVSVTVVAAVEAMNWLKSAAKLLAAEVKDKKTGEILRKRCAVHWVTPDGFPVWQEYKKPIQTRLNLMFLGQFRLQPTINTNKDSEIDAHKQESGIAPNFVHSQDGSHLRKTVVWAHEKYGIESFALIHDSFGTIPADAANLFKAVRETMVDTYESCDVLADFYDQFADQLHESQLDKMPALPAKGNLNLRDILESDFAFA

| SMILES | Final product mass (T7 RNA Polymerase; method of Example 20 (Table 4)) [µg] | Relative fluorescence reading (HEK293T cells; [1]) | Final product mass (T7 RNA Polymerase; [2]) [µg] | Relative fluorescence reading (HEK293T cells; [3]) |
| --- | --- | --- | --- | --- |
| COCC1(F)C(COP(=O)(O)OP(=O)(O)OP(=O)(O)OCC2OC(n3cnc4c(N)ncnc43)C(OC)C2OP(=O)([O-])OCC2OC(n3cnc4c(=O)[nH]c(N)nc43)C(O)C2O)OC(n2c[n+](Cc3ccc(Cl)cc3)c3c(=O)[nH]c(N)nc32)C1O (stereo not shown) [Compound D92] | 109 | 1.78 | – | – |
| CNc1ncnc2c1ncn2C1OC(COP(=O)(O)OP(=O)(O)OP(=O)(O)OCC2OC(n3c[n+](C)c4c(=O)[nH]c(N)nc43)C(O)C2(F)COC)C(OP(=O)([O-])OCC2OC(n3cnc4c(=O)[nH]c(N)nc43)C(O)C2O)C1OC (stereo not shown) [Compound D96] | 94 | 2.96 | – | – |
| COCC1(F)C(COP(=O)(O)OP(=O)(O)OP(=O)(O)OP(=O)(O)OCC2OC(n3cnc4c(N)ncnc43)C(OC)C2OP(=O)([O-])OCC2OC(n3cnc4c(=O)[nH]c(N)nc43)C(O)C2O)OC(n2c[n+](C)c3c(=O)[nH]c(N)nc32)C1O (stereo not shown) [Compound D28] | 92 | 1.12 | – | – |
| COCC1(F)C(COP(=O)(O)OP(=O)(O)OP(=O)(O)OCC2OC(n3cnc4c(N)ncnc43)C(OC)C2OP(=O)([O-])OCC2OC(n3cnc4c(=O)[nH]c(N)nc43)C(O)C2O)OC(n2c[n+](Cc3ccc(OC)cc3)c3c(=O)[nH]c(N)nc32)C1O (stereo not shown) [Compound D94] | 116 | 1.85 | – | – |
| CO[C@@H]1[C@H](OP(=O)([O-])OC[C@H]2O[C@@H](n3cnc4c(=O)[nH]c(N)nc43)[C@H](O)[C@@H]2O)[C@@H](COP(=O)(O)OP(=O)(O)OP(=O)(O)OC[C@H]2O[C@@H](n3c[n+](C)c4c(=O)[nH]c(N)nc43)[C@H](O)[C@]2(F)C(=O)N(C)C)O[C@H]1n1cnc2c(N)ncnc21 [Compound D82] | 146 | 1.63 | – | – |
| COCC1(F)C(COP(=O)(O)OP(=O)(O)CP(=O)(O)OCC2OC(n3cnc4c(N)ncnc43)C(OC)C2OP(=O)([O-])OCC2OC(n3cnc4c(=O)[nH]c(N)nc43)C(O)C2O)OC(n2c[n+](C)c3c(=O)[nH]c(N)nc32)C1O (stereo not shown) [Compound D24] | 83 | 1.08 | – | – |
| CO[C@@H]1[C@H](OP(=O)([O-])OC[C@H]2O[C@@H](n3cnc4c(=O)[nH]c(N)nc43)[C@H](O)[C@@H]2O)[C@@H](COP(=O)(O)OP(=O)(O)OP(=O)(O)OC[C@H]2O[C@@H](n3c[n+](C)c4c(=O)[nH]c(N)nc43)[C@H](O)[C@@H]2OC)O[C@H]1n1cnc2c(N)ncnc21 [Compound N-7413, reference compound] | 122 | 1.00 | 122 | 1.00 |
| COCC1(F)C(COP(=O)(O)OP(=O)(O)OP(=O)(O)OCC2OC(n3cnc4c(N)ncnc43)C(OC)C2OP(=O)([O-])OCC2OC(n3cnc4c(=O)[nH]c(N)nc43)C(O)C2O)OC(n2c[n+](Cc3ccc(F)cc3)c3c(=O)[nH]c(N)nc32)C1O (stereo not shown) [Compound D91] | 113 | 1.93 | – | – |
| CNc1ccccc1C(=O)NC[C@H]1[C@@H](O)[C@H](n2c[n+](C)c3c(=O)[nH]c(N)nc32)O[C@@H]1COP(=O)([O-])OP(=O)(O)OP(=O)(O)OC[C@H]1O[C@@H](n2cnc3c(N)ncnc32)[C@H](OC)[C@@H]1OP(=O)(O)OC[C@H]1O[C@@H](n2cnc3c(=O)[nH]c(N)nc32)[C@H](O)[C@@H]1O [Compound S165] | – | – | 88 | 0.34 |
| CNc1ccccc1C(=O)NCCCCCC(=O)NC[C@H]1[C@@H](O)[C@H](n2c[n+](C)c3c(=O)[nH]c(N)nc32)O[C@@H]1COP(=O)([O-])OP(=O)(O)OP(=O)(O)OC[C@H]1O[C@@H](n2cnc3c(N)ncnc32)[C@H](OC)[C@@H]1OP(=O)(O)OC[C@H]1O[C@@H](n2cnc3c(=O)[nH]c(N)nc32)[C@H](O)[C@@H]1O [Compound S166] | – | – | 91 | 0.87 |
| COC1C(OP(=O)([O-])OCC2OC(n3cnc4c(=O)[nH]c(N)nc43)C(O)C2O)C(COP(=O)(O)OP(=O)(O)OP(=O)(O)OCC2OC(n3c[n+](C)c4c(=O)[nH]c(N)nc43)C(O)C2(F)CN=[N+]=[N-])OC1n1cnc2c(N)ncnc21 (stereo not shown) [Compound D20] | 113 | 1.23 | – | – |
| CC[n+]1cn(C2OC(COP(=O)(O)OP(=O)(O)OP(=O)(O)OCC3OC(n4cnc5c(N)ncnc54)C(OC)C3OP(=O)([O-])OCC3OC(n4cnc5c(=O)[nH]c(N)nc54)C(O)C3O)C(F)(COC)C2O)c2nc(N)[nH]c(=O)c21 (stereo not shown) [Compound D89] | 110 | 1.52 | – | – |
| C=CC[n+]1cn(C2OC(COP(=O)(O)OP(=O)(O)OP(=O)(O)OCC3OC(n4cnc5c(N)ncnc54)C(OC)C3OP(=O)([O-])OCC3OC(n4cnc5c(=O)[nH]c(N)nc54)C(O)C3O)C(F)(COC)C2O)c2nc(N)[nH]c(=O)c21 (stereo not shown) [Compound D90] | 100 | 1.44 | – | – |
| CO[C@@H]1[C@H](OP(=O)([O-])OC[C@H]2O[C@@H](n3cnc4c(=O)[nH]c(N)nc43)[C@H](O)[C@@H]2O)[C@@H](COP(=O)(O)OP(=O)(O)OP(=O)(O)OC[C@H]2O[C@@H](n3c[n+](C)c4c(=O)[nH]c(N)nc43)[C@H](O)[C@]2(F)CNC(C)=O)O[C@H]1n1cnc2c(N)ncnc21 [Compound D31] | 133 | 1.73 | – | – |
| COCC1(N=[N+]=[N-])C(COP(=O)(O)OP(=O)(O)OP(=O)(O)OCC2OC(n3cnc4c(N)ncnc43)C(OC)C2OP(=O)([O-])OCC2OC(n3cnc4c(=O)[nH]c(N)nc43)C(O)C2O)OC(n2c[n+](C)c3c(=O)[nH]c(N)nc32)C1O (stereo not shown) [Compound D86] | 111 | 1.35 | – | – |
| COCC1(F)C(COP(=O)(O)OP(O)(=S)OP(=O)(O)OCC2OC(n3cnc4c(N)ncnc43)C(OC)C2OP(=O)([O-])OCC2OC(n3cnc4c(=O)[nH]c(N)nc43)C(O)C2O)OC(n2c[n+](C)c3c(=O)[nH]c(N)nc32)C1O (stereo not shown) [Compound D97] | 91 | 2.05 | – | – |
| COC1C(OP(=O)([O-])OCC2OC(n3cnc4c(=O)[nH]c(N)nc43)C(O)C2O)C(COP(=O)(O)OP(=O)(O)OP(=O)(O)OCC2OC(n3c[n+](C)c4c(=O)[nH]c(N)nc43)C(O)C2(C)F)OC1n1cnc2c(N)ncnc21 (stereo not shown) [Compound D85] | 120 | 1.6 | – | – |
| COCCOCCOCC(=O)NC[C@H]1[C@@H](O)[C@H](n2c[n+](C)c3c(=O)[nH]c(N)nc32)O[C@@H]1COP(=O)([O-])OP(=O)(O)OP(=O)(O)OC[C@H]1O[C@@H](n2cnc3c(N)ncnc32)[C@H](OC)[C@@H]1OP(=O)(O)OC[C@H]1O[C@@H](n2cnc3c(=O)[nH]c(N)nc32)[C@H](O)[C@@H]1O [Compound 5] | – | – | 180 | 1.86 |
| COCC1(F)C(COP(=O)(O)CP(=O)(O)OP(=O)(O)OCC2OC(n3cnc4c(N)ncnc43)C(OC)C2OP(=O)([O-])OCC2OC(n3cnc4c(=O)[nH]c(N)nc43)C(O)C2O)OC(n2c[n+](C)c3c(=O)[nH]c(N)nc32)C1O (stereo not shown) [Compound D23] | 96 | 0.93 | – | – |
| CO[C@@H]1[C@H](OP(=O)(O)OC[C@H]2O[C@@H](n3cnc4c(=O)[nH]c(N)nc43)[C@H](O)[C@@H]2O)[C@@H](COP(=O)(O)OP(=O)(O)OP(=O)([O-])OC[C@H]2O[C@@H](n3c[n+](C)c4c(=O)[nH]c(N)nc43)[C@H](O)[C@@H]2CNC(=O)CCCC[C@@H]2SC[C@@H]3NC(=O)N[C@@H]32)O[C@H]1n1cnc2c(N)ncnc21 [Compound S1] | – | – | 139 | 2.41 |
| COC[C@]1(F)[C@@H](COP(=O)(O)OP(=O)(O)OP(=O)(O)OC[C@H]2O[C@@H](n3cnc4c(N)ncnc43)[C@H](OC)[C@@H]2OP(=O)([O-])OC[C@H]2O[C@@H](n3cnc4c(=O)[nH]c(N)nc43)[C@H](O)[C@@H]2O)O[C@@H](n2c[n+](C)c3c(=O)[nH]c(N)nc32)[C@@H]1O [Compound D1] | – | 2.07 | – | – |
